This note sets out measurements from patent US20240299436A1, “Use of Inosine in Preparing Drug For Treatment of Corona Virus Disease 2019” (PLA ACADEMY OF MILITARY MEDICAL SCIENCES, priority 2021, published 2024).

The subject of test [1] is SARS-COV-2. In words: Survival and body weight of SARS-COV-2-infected Balb/c mice. The class given is in vivo. To be noted: preventive administration of inosine.
In test [2] the test system is SARS-COV-2. In words: Lung tissue pathology by H&E staining in SARS-COV-2-infected mice. The class given is in vivo, mouse. To be noted: oral inosine administration group vs SARS-COV-2 infection group. From the text: The effect of inosine on pathological changes of lung tissue was observed by hematoxylin and eosin (H&E) staining.
The test system of another test is IL-6. Briefly: Serum cytokine IL-6 level by ELISA in SARS-COV-2-infected mice. In kind it is in vivo, mouse. To be noted: inosine group. The method, then:
In the process of cytokine storm (CRS), IL-6 is one of the most critical cytokines, and severity of the CRS is closely related to the increase in IL-6. In the cytokine storm induced by SARS-COV-2, IL-6 plays an important role. In order to determine whether the inosine could inhibit the secretion of IL-6, the level of cytokine IL-6 in mouse serum was determined by ELISA.
A general note: An ELISA detects its analyte on a solid surface through an enzyme-linked reagent.

On to `OC[C@H]1O[C@@H](n2cnc3c(O)ncnc32)[C@H](O)[C@@H]1O` [inosine], for which, in the test on SARS-COV-2 [1], the “day after infection on which body weights regained gradually” value stood at 8 days. In addition, the weight loss entry in the test with SARS-COV-2 [1] (vs model group) is “lower weight loss”. Moreover, the “survival time of the Balb/c mice” value in the test with SARS-COV-2 [1] (vs model group (died on days 4-7)) is recorded as “significantly prolonged”. In addition, in the test with SARS-COV-2 [2], the “inflammatory infiltration of lung tissue” value is “significantly improved” and the “pathological changes of lung tissue (H&E staining)” value is listed as “the lung tissues were structurally intact, alveolar space was clear, no congestion was noted in the pulmonary alveolar wall”. For the same compound, the “level of cytokine IL-6 in mouse serum” value in the test with IL-6 is on record as “could inhibit the high expression of SARS-COV-2 induced IL-6”.
